# Assay results published in patent US10822348B2, “Inhibitors of Bruton's tyrosine kinase and methods of their use” (JANSSEN PHARMACEUTICA NV, priority 2015, dated 2020).
# Molecular target: unphosphorylated-BTK kinase domain (UP-BTK), GST-tagged human BTK (389-659aa) (Homo sapiens (Human), UniProt Q06187)
# Experiment: BTK kinase Lanthascreen binding assay
# Settings: negative log of the IC50 in molar; 60 minutes incubation with 50 nM Tracer 236
# Experimental: BTK Kinase Lanthascreen Binding Assay:
# A BTK kinase lanthascreen binding assay monitors compound binding to unphosphorylated-BTK kinase domain (UP-BTK), by competing with a fluorescent labeled tracer. […] Data were analyzed using Xlfit™ version 5.3 from ID Business Solutions (Guildford), Microsoft Excel add-in. pIC50 refers to the negative log of the IC50 in molar.
# unphosphorylated-BTK kinase domain (UP-BTK), GST-tagged human BTK (389-659aa), sequence (Q06187 389-659): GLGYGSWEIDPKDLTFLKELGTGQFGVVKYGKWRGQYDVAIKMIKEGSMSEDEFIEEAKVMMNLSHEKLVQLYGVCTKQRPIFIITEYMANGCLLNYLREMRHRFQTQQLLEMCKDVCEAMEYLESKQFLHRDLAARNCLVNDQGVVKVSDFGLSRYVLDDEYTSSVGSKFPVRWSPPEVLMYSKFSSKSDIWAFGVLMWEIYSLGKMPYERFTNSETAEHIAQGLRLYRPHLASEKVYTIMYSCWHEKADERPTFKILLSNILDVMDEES
row,Structure (SMILES),BTK_I_binding pIC50
1,"C=CC(=O)N1CCC[C@@H](NC(=O)c2sc3nccc4c3c2NC(=O)N4c2ccc(OC3CCOCC3)cc2C)C1 (single isomer, unassigned) [Example 742, (R)—N-(1-Acryloylpiperidin-3-yl)-5-(*S)-(2-methyl-4-((tetrahydro-2H-pyran-4-yl)oxy)phenyl)-4-oxo-4,5-dihydro-3H-1-thia-3,5,8-triazaacenaphthylene-2-carboxamide]",5.8
2,"C=CC(=O)N1CC[C@@H](NC(=O)c2sc3nccc4c3c2NC(=O)N4c2cnc(CC(C)C)cc2C)C1 (single isomer, unassigned) [Example 747, (R)—N-(1-Acryloylpyrrolidin-3-yl)-5-(*S)-(6-isobutyl-4-methylpyridin-3-yl)-4-oxo-4,5-dihydro-3H-1-thia-3,5,8-triazaacenaphthylene-2-carboxamide]",7.5
3,"C=CC(=O)N1CC[C@@H](NC(=O)c2sc3nccc4c3c2NC(=O)N4c2cnc(CC(C)C)cc2C)C1 (single isomer, unassigned) [Example 756, (R)—N-(1-Acryloylpyrrolidin-3-yl)-5-(*R)-(6-isobutyl-4-methylpyridin-3-yl)-4-oxo-4,5-dihydro-3H-1-thia-3,5,8-triazaacenaphthylene-2-carboxamide]",<6
4,"CCC(=O)N1CCC[C@@H](NC(=O)c2sc3nccc4c3c2NC(=O)N4c2cnc(CC(C)C)cc2C)C1 (single isomer, unassigned) [Example 765, (R)-5-(*S)-(6-Isobutyl-4-methylpyridin-3-yl)-4-oxo-N-(1-propionylpiperidin-3-yl)-4,5-dihydro-3H-1-thia-3,5,8-triazaacenaphthylene-2-carboxamide]",6.5
5,"C=CC(=O)N1CCC[C@@H](NC(=O)c2sc3nccc4c3c2NC(=O)N4c2cnc(OCC(C)C)cc2C)C1 (single isomer, unassigned) [Example 766, (R)—N-(1-Acryloylpiperidin-3-yl)-5-(*S)-(6-isobutoxy-4-methylpyridin-3-yl)-4-oxo-4,5-dihydro-3H-1-thia-3,5,8-triazaacenaphthylene-2-carboxamide]",8.2
6,"C=CC(=O)N1CCC[C@@H](NC(=O)c2sc3nccc4c3c2NC(=O)N4c2cnc(OCC(C)C)cc2C)C1 (single isomer, unassigned) [Example 767, (R)—N-(1-Acryloylpiperidin-3-yl)-5-(*R)-(6-isobutoxy-4-methylpyridin-3-yl)-4-oxo-4,5-dihydro-3H-1-thia-3,5,8-triazaacenaphthylene-2-carboxamide]",<6
7,"C=CC(=O)N1CC[C@@H](NC(=O)c2sc3nccc4c3c2NC(=O)N4c2cnc(OC3CCCC3)cc2C)C1 (single isomer, unassigned) [Example 776, (R)—N-(1-Acryloylpyrrolidin-3-yl)-5-(*S)-(6-(cyclopentyloxy)-4-methylpyridin-3-yl)-4-oxo-4,5-dihydro-3H-1-thia-3,5,8-triazaacenaphthylene-2-carboxamide]",8.1
8,"C=CC(=O)N1CC[C@@H](NC(=O)c2sc3nccc4c3c2NC(=O)N4c2cnc(OCC(C)C)cc2C)C1 (single isomer, unassigned) [Example 779, (R)—N-(1-Acryloylpyrrolidin-3-yl)-5-(*S)-(6-isobutoxy-4-methylpyridin-3-yl)-4-oxo-4,5-dihydro-3H-1-thia-3,5,8-triazaacenaphthylene-2-carboxamide]",8.0
9,"C=CC(=O)N1CCC[C@@H](NC(=O)c2sc3nccc4c3c2NC(=O)N4c2ccc(CC(C)C)nc2C)C1 (single isomer, unassigned) [Example 792, (R)—N-(1-Acryloylpiperidin-3-yl)-5-(*S)-(6-isobutyl-2-methylpyridin-3-yl)-4-oxo-4,5-dihydro-3H-1-thia-3,5,8-triazaacenaphthylene-2-carboxamide]",6.4
10,"C=CC(=O)N1CCC[C@@H](NC(=O)c2sc3nccc4c3c2NC(=O)N4c2ccc(CC(C)C)nc2C)C1 (single isomer, unassigned) [Example 815, (R)—N-(1-Acryloylpiperidin-3-yl)-5-(*R)-(6-isobutyl-2-methylpyridin-3-yl)-4-oxo-4,5-dihydro-3H-1-thia-3,5,8-triazaacenaphthylene-2-carboxamide]",<6
11,"C=CC(=O)N[C@H]1COC[C@H]1NC(=O)c1sc2nccc3c2c1NC(=O)N3c1cnc(Oc2ccccc2)cc1C (stereo in doubt) [Example 745, N-((3*S,4*R)-4-Acrylamidotetrahydrofuran-3-yl)-5-(*S)-(4-methyl-6-phenoxypyridin-3-yl)-4-oxo-4,5-dihydro-3H-1-thia-3,5,8-triazaacenaphthylene-2-carboxamide]",8.1
12,"C=CC(=O)N[C@@H]1COC[C@@H]1NC(=O)c1sc2nccc3c2c1NC(=O)N3c1cnc(Oc2ccccc2)cc1C (stereo in doubt) [Example 752, N-((*3R,*4S)-4-Acrylamidotetrahydrofuran-3-yl)-5-(*S)-(4-methyl-6-phenoxypyridin-3-yl)-4-oxo-4,5-dihydro-3H-1-thia-3,5,8-triazaacenaphthylene-2-carboxamide]",6.4
13,"O=C(CCCC(=O)NCCCOCCOCCOCCCNC(=O)CCCC[C@H]1SC[C@H]2NC(=O)N[C@H]21)NC/C=C/C(=O)N1CCCC(NC(=O)c2sc3nccc4c3c2NC(=O)N4c2ccc(Oc3ccccc3)cn2)C1 (stereo partly drawn) [Example 780, N^1-(15-oxo-19-((3aR,4R,6aS)-2-oxohexahydro-1H-thieno[3,4-d]imidazol-4-yl)-4,7,10-trioxa-14-azanonadecyl)-N^5-((E)-4-oxo-4-(3-(4-oxo-5-(5-phenoxypyridin-2-yl)-4,5-dihydro-3H-1-thia-3,5,8-triazaacenaphthylene-2-carboxamido)piperidin-1-yl)but-2-en-1-yl)glutaramide]",6.3

# Same assay, conditions: read-out: BTK_I_binding pIC50 (converted)
row,Structure (SMILES),IC50 [nM]
1,"C=CC(=O)N1C[C@@H](F)C[C@@H](NC(=O)c2sc3nccc4c3c2NC(=O)N4c2ccc(Oc3ccccc3)cc2C)C1 [Example 3, N-((3R,5S)-1-Acryloyl-5-fluoropiperidin-3-yl)-5-(2-methyl-4-phenoxyphenyl)-4-oxo-4,5-dihydro-3H-1-thia-3,5,8-triazaacenaphthylene-2-carboxamide]",12.6

# Same assay, conditions: unphosphorylated-BTK kinase domain, Lanthascreen, 60 minutes incubation; pIC50 = negative log of IC50 in molar
row,Structure (SMILES),BTK_I_binding pIC50
1,"Cc1cc(OC(C)C)ncc1N1C(=O)Nc2c(C(=O)N[C@@H]3CCNC3)sc3nccc1c23 (single isomer, unassigned) [Example 958, (R)-5-(*S)-(6-Isopropoxy-4-methylpyridin-3-yl)-4-oxo-N-(pyrrolidin-3-yl)-4,5-dihydro-3H-1-thia-3,5,8-triazaacenaphthylene-2-carboxamide]",<6
